Experimental data taken from US4748122A, “2,5-diketo-D-gluconic acid reductase” (Shionogi & Co., Ltd., priority 1983, dated 1988).

Legend:
25DKG-Rase [1] = molecular target: T1, 25DKG-Rase (Corynebacterium sp., UniProt P15339); experiment: Spectrophotometric enzymatic activity (decrease in absorption at 340 nm), purified enzyme solution of Example 1; type: biochemical, Corynebacterium sp. No. 20A-77 mutant (FERM-BP 108); details: for reductive activity (in words) / Activity of the purified enzyme solution (1 ml): NADPH, 0.1M TB pH 7, 30° C.; for Enzymatic activity: per 1 ml purified enzyme solution
T1 construct: The enzyme is an intracellular enzyme extracted from the cells of the 2KLG producing strain; made in house; host or cells: natural producer Corynebacterium sp; No. 20A-77 mutant FERM-BP 108, enzyme purified from sonicated cells; not recombinant
T1 sequence (P15339 2-277 limits assumed): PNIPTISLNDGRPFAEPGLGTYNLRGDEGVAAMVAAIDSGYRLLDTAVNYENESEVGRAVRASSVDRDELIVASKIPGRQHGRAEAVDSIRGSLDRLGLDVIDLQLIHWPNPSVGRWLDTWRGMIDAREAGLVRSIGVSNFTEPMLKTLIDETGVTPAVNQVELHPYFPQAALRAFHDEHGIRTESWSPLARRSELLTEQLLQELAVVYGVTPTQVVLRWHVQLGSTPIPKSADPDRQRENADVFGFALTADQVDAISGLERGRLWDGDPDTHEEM

25DKG-Rase [2] = molecular target: T2, 25DKG-Rase (Corynebacterium sp. SHS752001, UniProt P15339); experiment: Action, substrate specificity and Km of the purified 25DKG-Rase (general description); type: biochemical, genus Corynebacterium; details: for specificities for substrates (reducing action): in the presence of NADPH
T2 sequence (P15339 whole entry): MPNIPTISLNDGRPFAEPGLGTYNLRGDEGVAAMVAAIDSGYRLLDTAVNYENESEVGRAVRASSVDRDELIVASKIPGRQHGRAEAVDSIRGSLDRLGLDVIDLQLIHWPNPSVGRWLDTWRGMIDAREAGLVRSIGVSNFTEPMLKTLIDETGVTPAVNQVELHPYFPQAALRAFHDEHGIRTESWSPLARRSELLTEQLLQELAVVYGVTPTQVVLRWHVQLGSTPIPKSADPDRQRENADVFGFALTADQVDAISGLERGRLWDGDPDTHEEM
Text: As shown, NADPH is used as a hydrogen donor in the above reaction. Reduced nicotinamide adenine dinucleotide (NADH) may also be used as the hydrogen donor in the above reaction but the reaction velocity in that case is lowered to one two hundred and fiftieth (1/250) or less of that in the reaction where NADPH is used.
The enzymatic activity is spectrophotometrically measured on the basis of the decrease in absorption at 340 nm which corresponds to the oxidation of NADPH as the result of the enzyme reaction at 30° C. in 0.1M Tris buffer (pH 7) containing 0.1 mM NADPH and 3.3 mM Ca-25DKG. One unit of the enzymatic activity is defined as that oxidizes 1 μmole of NADPH for one minute.

[3] = test system: 25DKG-Rase derived from Strain T-13; experiment: Substrate specificity by product formation, enzyme from T-13; type: biochemical, Corynebacterium sp. No. T-13 (ATCC 31,089)
Method: (§1) The purified enzyme solution (10 μl) obtained above (3) was mixed with 25 μmoles of a substrate (Ca-25DKG or 5KF) and 3.0 ml of 0.01M TB (pH 7) containing 15 μmoles of NADPH and the mixture was allowed to react at 30° C. for 60 minutes. After the reaction, the reaction mixture was analyzed by paper chromatography (developing solvent; phenol:formic acid:water=75:4:25, chromogenic agent; AHF solution, prepared by dissolving 0.93 g of anilin and 1.66 g of phthalic acid in 100 ml of water-saturated n-butanol and heating at 105° C. for 2 minutes) and by gas chromatography (column; SE-52, carrier gas: Helium, sample; trimethylsilylated derivative). […] In Table 1, the results of quantitative determination of the products by gas chromatography are shown.
(§2) The measurements of the physico-chemical properties were conducted in a manner as described in Example 1-(4) (5).

[4] = test system: 25DKG-Rase derived from Strain K-106; experiment: Substrate specificity by product formation, enzyme from K-106; type: biochemical, Corynebacterium sp. No. K-106 (ATCC 31,088)
Method: as §1, §2

25DKG-Rase [5] = molecular target: T2, 25DKG-Rase; experiment: Action, substrate specificity and Km of the purified 25DKG-Rase (general description); type: biochemical, genus Corynebacterium; details: in the presence of NADP or NAD
[6] = test system: 25DKG-Rase derived from Strain T-13; experiment: Enzymatic activity of 25DKG-Rase obtained from T-13 (Example 2); type: biochemical, Corynebacterium sp. No. T-13 (ATCC 31,089)
Method: (§3) Two point nine (2.9) ml of 0.1M TB (pH 7) containing 0.3 μmoles of NADPH was placed in a quartz cubette having 1 cm optical length difference and added 1-5 μl of the enzyme solution obtained above (3) thereto. Then, to the mixture, each 0.1 ml of the various substrate solutions (0.1M) were added while being kept at 30° C. Reactivities of the enzyme on the respective substrates were determined, by means of successive measurement of the decrease in absorption at 340 nm, on the basis of the decrease for 1 minute.
as §2
(§4) Enzymatic activities of 25DKG-Rases obtained from K-106 and T-13 were measured at varying pH from 4 to 9 (substrate: Ca-25DKG, reaction temperature: 30° C.).
(§5) The enzymatic activities of 25DKG-Rases obtained from K-106 and T-13 were measured at varying temperature (pH 7.0, substrate: Ca-25DKG).

25DKG-Rase [7] = molecular target: T1, 25DKG-Rase; type: biochemical, Corynebacterium sp. No. 20A-77 mutant (FERM-BP 108); details: 60 minutes; for product formed (paper and gas chromatography): NADPH, 0.01M TB pH 7, 30° C.
[8] = test system: 25DKG-Rase derived from Strain K-106; experiment: Enzymatic activity of 25DKG-Rase obtained from K-106 (Example 2); type: biochemical, Corynebacterium sp. No. K-106 (ATCC 31,088)
Method: as §3, §2, §4, §5

25DKG-Rase [9] = molecular target: T2, 25DKG-Rase; experiment: Inhibition, activation and stabilization of the enzyme; type: biochemical, genus Corynebacterium; details: for activation of the enzyme: addition of Mg++ or Mn++; for stabilization of the enzyme: glycerol of a high concentration (30-50%) or sucrose (1M)
Text: It is stabilized by glycerol of a high concentration (30-50%) or sucrose (1M).

SMILES	reductive activity (in words) (25DKG-Rase [1])	specificities for substrates (reducing action) (25DKG-Rase [2])	product formed (substrate specificity) [3]	product formed (substrate specificity) [4]	Activity of the purified enzyme solution (1 ml) (25DKG-Rase [1]) [units]	other results
O=C(O)C(=O)[C@@H](O)[C@H](O)[C@H](O)CO [2-keto-D-gluconic acid]	does not show any reductive activity	does not show any reducing action	None was produced	None was produced	–	–
O=C(O)C(=O)[C@@H](O)[C@H](O)[C@@H](O)CO [2KLG, 2-keto-L-gulonic acid]	does not show any reductive activity	does not show any reducing action	None was produced	None was produced	–	production of 25DKG or 5KF from 2KLG or L-sorbose (reverse reaction) (25DKG-Rase [5]): No or not substantial production
O=C(CO)[C@@H](O)[C@H](O)[C@@H](O)C(=O)O [5-keto-D-gluconic acid]	does not show any reductive activity	does not reduce	None was produced	None was produced	–	–
O=C(CO)[C@@H](O)[C@H](O)C(=O)CO [5KF, 5-keto-D-fructose]	shows a high activity	shows specificities	only L-sorbose	only L-sorbose	94	Enzymatic activity (25DKG-Rase [1]; pH 4.0, 3,3-dimethylglutaric acid buffer): 2 unit/ml; Enzymatic activity (25DKG-Rase [1]; pH 5.0, 3,3-dimethylglutaric acid buffer): 33 unit/ml; Enzymatic activity (25DKG-Rase [1]; pH 6.0, Good (PIPES) buffer): 96 unit/ml; Enzymatic activity (25DKG-Rase [1]; pH 6.5, Good (PIPES) buffer): 95 unit/ml; Enzymatic activity (25DKG-Rase [1]; pH 7.0, Good (PIPES) buffer): 92 unit/ml; Enzymatic activity (25DKG-Rase [1]; pH 7.0, Tris buffer): 93 unit/ml; Enzymatic activity (25DKG-Rase [1]; pH 7.5, Tris buffer): 68 unit/ml; Enzymatic activity (25DKG-Rase [1]; pH 8.0, Tris buffer): 48 unit/ml; Enzymatic activity (25DKG-Rase [1]; pH 8.5, Tris buffer): 27 unit/ml; Enzymatic activity (25DKG-Rase [1]; pH 9.0, Tris buffer): 13 unit/ml; Enzymatic activity per protein ([6]; enzyme from Strain T-13, NADPH): 229 units/mg protein; Enzymatic activity ([6]; enzyme from Strain T-13, purified enzyme solution, NADPH): 39 units/ml; Concentration of the product (25DKG-Rase [7]; 10 μl enzyme solution, 25 μmoles substrate, 15 μmoles NADPH, 30° C., gas chromatography): 795 µg/mL; product formed (paper and gas chromatography) (25DKG-Rase [7]): only L-sorbose is produced; Enzymatic activity per protein ([8]; enzyme from Strain K-106, NADPH): 152 units/mg protein; Enzymatic activity ([8]; enzyme from Strain K-106, purified enzyme solution, NADPH): 38.3 units/ml
O=C(O)C(=O)[C@@H](O)[C@H](O)C(=O)CO [25DKG, 2,5-diketo-D-gluconic acid]	shows a high activity	shows specificities	–	–	–	25DKG of the substrate reduced to 2KLG (25DKG-Rase [2]; 30° C. for 60-120 minutes): ≥ 90%; Km ([6]; purified enzyme solution of T-13): 2.6 ± 1 mM; product formed (paper and gas chromatography) (25DKG-Rase [7]): only 2KLG is produced; Km ([8]; purified enzyme solution of K-106): 1.7 ± 1 mM
O=C(O)C(=O)[C@@H](O)[C@H](O)[C@H](O)CO [Ca-2-keto-D-gluconate]	–	–	–	–	0	–
O=C(CO)[C@@H](O)[C@H](O)[C@H](O)CO [D-fructose]	does not show any reductive activity	does not show any reducing action	None was produced	None was produced	0	–
O=C(CO)[C@@H](O)[C@H](O)[C@@H](O)C(=O)O [K-5-keto-gluconate]	–	–	–	–	0	–
O=C(CO)[C@@H](O)[C@H](O)[C@@H](O)CO [L-sorbose]	does not show any reductive activity	does not show any reducing action	None was produced	None was produced	0	production of 25DKG or 5KF from 2KLG or L-sorbose (reverse reaction) (25DKG-Rase [5]): No or not substantial production
[Mg+2] [Mg^++]	–	–	–	–	–	activation of the enzyme (25DKG-Rase [9]): No remarkable increase in activation
[Mn+2] [Mn^++]	–	–	–	–	–	activation of the enzyme (25DKG-Rase [9]): No remarkable increase in activation
NC(=O)C1=CN([C@@H]2O[C@H](COP(=O)(O)OP(=O)(O)OC[C@H]3O[C@@H](n4cnc5c(N)ncnc54)[C@H](O)[C@@H]3O)[C@@H](O)[C@H]2O)C=CC1 [NADH, Reduced nicotinamide adenine dinucleotide]	–	–	–	–	–	reaction velocity with NADH as hydrogen donor relative to NADPH (25DKG-Rase [2]; NADH in place of NADPH): 1/250
O=C(O)C(=O)[C@@H](O)[C@H](O)[C@@H](O)CO [Na-2KLG]	–	–	–	–	0	–
O=CC(O)CO (stereo not shown) [glyceroaldehyde]	–	–	–	–	–	inhibition of the enzyme (25DKG-Rase [9]): scarcely inhibited
OCC(O)CO [glycerol]	–	–	–	–	–	stabilization of the enzyme (25DKG-Rase [9]): stabilized
O=C(O)C(=O)O [oxalate]	–	–	–	–	–	inhibition of the enzyme (25DKG-Rase [9]): inhibited
OC[C@H]1O[C@@](CO)(O[C@H]2O[C@H](CO)[C@@H](O)[C@H](O)[C@H]2O)[C@@H](O)[C@@H]1O [sucrose]	–	–	–	–	–	stabilization of the enzyme (25DKG-Rase [9]): stabilized
